# Laboratory results: publication PMC7401407, “Development of WEE2 kinase inhibitors as novel non-hormonal female contraceptives that target meiosis” (Biology of Reproduction, 2020)
# “Also recorded” adds a separate entry of the source.
# Key:
# MYT1 (PKMYT1) = system: MYT1 (PKMYT1); design: method as in PMID 28792760; conditions: direct binding studies; cited from earlier work
# recombinant WEE2 protein = system: T1, recombinant WEE2 protein; test: ELISA of CDK1 phosphorylation (CycLex kit), WEE2; type: biochemical, human; conditions: 1 μM inhibitor, 60 min at 30 °C
# T1 construct: made in house
# bovine oocytes = test: Bovine in vitro fertilization (exit from metaphase II arrest); type: cell-based
# HEK 293 cells = test: Somatic cell proliferation assay (dye dilution, flow cytometry); type: cell-based
# Text: To determine off-target effects of inhibitors on somatic cell WEE1, a proliferation assay was used as previously reported [22]. […] Independent cell cultures were collected at 0-, 48-, 72-, and 96-h post loading with a membrane permeable fluorophore, cell trace violet dye (Cat# C34557; ThermoFisher, Waltham, MA), which diminishes in concentration within the cell after each progressive division. Duplicate samples were collected and fixed for analysis by flow cytometry.
# To evaluate the biological off-target effect of candidate inhibitors on mitosis, we use somatic cell culture and flow cytometry to assess proliferation disruption. […] Prior to each culture experiment, we treat the cells with a membrane permeable fluorescent dye to track cellular division activity. As cells divide the dye becomes diluted and the fluorescent signal decreases. We use flow cytometry, with at least 20 000 events counted to measure fluorescence intensity to indicate changes in cell proliferation in the presence of inhibitors [38]. The more inhibitory a drug, the more dye will be retained in the cells and so comparison can be made to controls to determine the level of mitotic activity.
# human WEE1 protein = system: T2, human WEE1 protein; test: ELISA of CDK1 phosphorylation (CycLex WEE1 Kinase Assay/Inhibitor Screening Kit), WEE1; type: biochemical; conditions: 1 μM inhibitor, 60 min at 30 °C
# T2 construct: purchased MBL International CYE1172
smiles,measurement,setting,value
"C=CCn1c(=O)c2cnc(Nc3ccc(N4CCN(C)CC4)cc3)nc2n1-c1cccc(C(C)(C)O)n1 [MK-1775, Adavosertib]",activity against MYT1 relative to WEE1 and WEE2,MYT1 (PKMYT1),significantly weaker activity
same,WEE2 phosphorylation activity of CDK1,recombinant WEE2 protein,significantly reduces; also recorded: significantly inhibits
same,proportion of oocytes undergoing normal fertilization,bovine oocytes; 1 μM prior to and during IVF,reduction in the proportion of oocytes undergoing normal fertilization
same,reduction of MII exit compared to DMSO,"bovine oocytes; bovine oocytes co-cultured with inhibitor during IVF, N = 126",16%
same,somatic cell division activity (mitosis),"HEK 293 cells; HEK 293, 0.01 μM",decrease in mitosis
same,somatic cell division activity (mitosis),"HEK 293 cells; HEK 293, 0.1 μM",decrease in mitosis
same,somatic cell division activity (mitosis),"HEK 293 cells; HEK 293, 1 μM",inhibited mitosis in somatic cell culture after 48 h; also recorded: arrested the cell culture
same,WEE1 phosphorylation activity of CDK1,human WEE1 protein,significantly reduces; also recorded: significantly inhibits
